Results: ChEMBL document CHEMBL5154870, “Discovery of novel glutaminase 1 allosteric inhibitor with 4-piperidinamine linker and aromatic heterocycles” (Eur J Med Chem, 2022)
The source made the active and inactive calls. No cut-off for these calls is given here.

Assays:
[1] = Toxicity in BALB/c SPF mouse xenografted with human HCT-116 cells assessed as body weight loss at 50 to 100 mg/kg, ip administered BID for 21 days; format: organism-based; conditions: in vivo, 504 h, dose 50-100 mg/kg, time 21 day
[2] = Toxicity in nude mouse xenografted with human HCT-116 cells assessed as lung damage by measuring edema and atrophy at 50 to 100 mg/kg, ip measured after 21 days by H and E staining based analysis; format: organism-based; conditions: in vivo, 504 h, dose 50-100 mg/kg, time 21 day
[3] = target: T1, Glutaminase kidney isoform, mitochondrial (Homo sapiens) (UniProt O94925); conditions: HCT-116, filed as negative allosteric modulator, dose 100-300 nM, time 12.0 hrs
T1 sequence (whole entry): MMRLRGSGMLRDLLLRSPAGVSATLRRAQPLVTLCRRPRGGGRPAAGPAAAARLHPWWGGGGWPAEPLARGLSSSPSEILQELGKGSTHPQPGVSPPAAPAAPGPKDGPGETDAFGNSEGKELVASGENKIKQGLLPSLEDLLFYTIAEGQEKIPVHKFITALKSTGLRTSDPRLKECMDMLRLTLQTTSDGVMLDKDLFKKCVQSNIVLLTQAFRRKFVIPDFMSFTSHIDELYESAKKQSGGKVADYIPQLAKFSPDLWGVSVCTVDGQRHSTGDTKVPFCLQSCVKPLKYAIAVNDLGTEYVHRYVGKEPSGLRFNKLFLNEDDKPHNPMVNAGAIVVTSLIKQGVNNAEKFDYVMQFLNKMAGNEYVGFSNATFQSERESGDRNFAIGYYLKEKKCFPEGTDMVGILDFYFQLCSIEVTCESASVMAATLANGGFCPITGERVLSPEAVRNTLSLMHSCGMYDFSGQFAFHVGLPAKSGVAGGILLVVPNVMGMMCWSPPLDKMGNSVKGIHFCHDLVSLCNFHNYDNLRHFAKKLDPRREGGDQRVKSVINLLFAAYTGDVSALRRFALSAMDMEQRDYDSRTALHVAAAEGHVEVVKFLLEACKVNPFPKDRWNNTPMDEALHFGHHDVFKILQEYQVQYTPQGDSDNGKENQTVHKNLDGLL

[4] = target: T1, Glutaminase kidney isoform, mitochondrial (Homo sapiens); conditions: HCT-116, filed as negative allosteric modulator, dose 100-300 nM, time 12.0 hrs; remark: listed apart in the source
[5] = tested on: HCT-116; experiment: Induction of apoptosis in human HCT-116 cells assessed as late apoptotic cells at 200 nM measured after 24 hrs by Annexin V-FITC/PI staining based flow cytometry method (reference value: 3.55 %); format: functional
[6] = AUC (0 to t) in Sprague-Dawley rat at 10 mg/kg, ip measured for 72 hrs by LC-MS/MS analysis; format: ADME, organism-based; design: time 72 hrs, dose 10 mg/kg, route ip; conditions: in vivo
[7] = Toxicity in nude mouse xenografted with human HCT-116 cells assessed as liver damage by measuring edema and atrophy at 50 to 100 mg/kg, ip measured after 21 days by H and E staining based analysis; format: organism-based; conditions: in vivo, 504 h, dose 50-100 mg/kg, time 21 day
[8] = Metabolic stability in human plasma assessed as parent compound remaining at 1 uM measured after 2 hrs by LC-MS/MS analysis; format: ADME, cell-free; conditions: read-out: Stability
[9] = target: T1, Glutaminase kidney isoform, mitochondrial (Homo sapiens); conditions: HCT-116, filed as negative allosteric modulator, dose 100-300 nM, time 12.0 hrs; remark: listed apart in the source
[10] = target: T2, Glutaminase kidney isoform, mitochondrial (Homo sapiens, UniProt O94925); experiment: Binding affinity to human GLS1 assessed as dissociation constant by surface plasmon resonance analysis
T2 sequence (O94925 whole entry): T1 sequence (whole entry)

[11] = Bioavailability in Sprague-Dawley rat at 10 mg/kg, ip measured for 72 hrs by LC-MS/MS analysis; format: ADME, organism-based; conditions: in vivo
[12] = tested on: HCT-116; experiment: Induction of apoptosis in human HCT-116 cells assessed as necrotic cells at 200 nM measured after 24 hrs by Annexin V-FITC/PI staining based flow cytometry method (reference value: 0.48 %); format: functional
[13] = tested on: H22; experiment: Antiproliferative activity against mouse H22 cells assessed as inhibition of cell proliferation measured after 72 hrs by MTT assay; format: functional, cell-based; conditions: H22, 72 h
[14] = tested on: HCT-116; experiment: Antiproliferative activity against human HCT-116 cells overexpressing GLS1 assessed as inhibition of cell proliferation measured after 72 hrs by MTT assay; format: functional, cell-based; conditions: HCT-116, 72 h
[15] = Toxicity in nude mouse xenografted with human HCT-116 cells assessed as kidney damage by measuring edema and atrophy at 50 to 100 mg/kg, ip measured after 21 days by H and E staining based analysis; format: organism-based; conditions: in vivo, 504 h, dose 50-100 mg/kg, time 21 day
[16] = Cmax in Sprague-Dawley rat at 10 mg/kg, ip measured for 72 hrs by LC-MS/MS analysis; format: ADME, organism-based; design: dose 10 mg/kg, time 72 hrs, route ip; conditions: in vivo
[17] = Half life in Sprague-Dawley rat at 5 mg/kg, iv measured for 72 hrs by LC-MS/MS analysis; format: ADME, organism-based; conditions: in vivo
[18] = Apparent volume of distribution in Sprague-Dawley rat at 5 mg/kg, iv measured for 72 hrs by LC-MS/MS analysis; format: ADME, organism-based; conditions: in vivo

O=C(Cc1ccccc1)Nc1nnc(NC2CCN(c3nnc(NC(=O)c4nccn4Cc4ccc(C(F)(F)F)cc4)s3)CC2)s1
Activity [1]: Non-Toxic
Activity [2]: Non-Toxic
inhibition [3]: Active
inhibition [4]: Active
Activity [5]: 13.2%
AUC(0-t) at 72 h [6]: 2900 ng·h/mL
Activity [7]: Non-Toxic
remaining at 2 h, 1 µM [8]: 96%
inhibition [9]: Active
Kd [10]: 52 nM
bioavailability [11]: 20.9%
Activity [12]: 0.02%
IC50 [13]: 10800 nM
IC50 [14]: 51 nM
Activity [15]: Non-Toxic
Cmax [16]: 262 ng/mL
half-life [17]: 7.44 h
Vd/F [18]: 7.31 L/kg
